Converted amounts (≈) assume the structure as drawn.
What was measured:
Assay type in all cases: functional
[1] = test system: Klebsiella aerogenes; assay: Antimicrobial activity against multidrug resistant Enterobacter aerogenes isolate 5 by broth dilution method
[2] = test system: Klebsiella aerogenes; assay: Antimicrobial activity against multidrug resistant Enterobacter aerogenes isolate 11 by broth dilution method
[3] = test system: Klebsiella aerogenes; assay: Antimicrobial activity against multidrug resistant Enterobacter aerogenes isolate 8 by broth dilution method in presence of 26.3 mg/L efflux pump inhibitor phenylalanine-arginine-beta-naphthylamide
[4] = test system: Klebsiella pneumoniae; assay: Antimicrobial activity against multidrug resistant Klebsiella pneumoniae isolate 7 by broth dilution method
[5] = test system: Klebsiella aerogenes; assay: Antimicrobial activity against multidrug resistant Enterobacter aerogenes isolate 7 by broth dilution method
[6] = test system: Klebsiella pneumoniae; assay: Antimicrobial activity against multidrug resistant Klebsiella pneumoniae isolate 5 by broth dilution method
[7] = test system: Klebsiella aerogenes; assay: Antimicrobial activity against multidrug resistant Enterobacter aerogenes isolate 5 by broth dilution method in presence of 26.3 mg/L efflux pump inhibitor phenylalanine-arginine-beta-naphthylamide
[8] = test system: Klebsiella aerogenes; assay: Antimicrobial activity against multidrug resistant Enterobacter aerogenes isolate 27 by broth dilution method
[9] = test system: Klebsiella pneumoniae; assay: Antimicrobial activity against multidrug resistant Klebsiella pneumoniae isolate 1 by broth dilution method
[10] = test system: Klebsiella aerogenes; assay: Antimicrobial activity against multidrug resistant Enterobacter aerogenes isolate 13 by broth dilution method
[11] = test system: Klebsiella aerogenes; assay: Antimicrobial activity against multidrug resistant Enterobacter aerogenes isolate 21 by broth dilution method in presence of 26.3 mg/L efflux pump inhibitor phenylalanine-arginine-beta-naphthylamide
[12] = test system: Klebsiella pneumoniae; assay: Antimicrobial activity against multidrug resistant Klebsiella pneumoniae isolate 2 by broth dilution method in presence of 26.3 mg/L efflux pump inhibitor phenylalanine-arginine-beta-naphthylamide
[13] = test system: Klebsiella aerogenes; assay: Antimicrobial activity against multidrug resistant Enterobacter aerogenes isolate 15 by broth dilution method in presence of 26.3 mg/L efflux pump inhibitor phenylalanine-arginine-beta-naphthylamide
[14] = test system: Klebsiella pneumoniae; assay: Antimicrobial activity against multidrug resistant Klebsiella pneumoniae ATCC 11296 by broth dilution method in presence of 26.3 mg/L efflux pump inhibitor phenylalanine-arginine-beta-naphthylamide
[15] = test system: Klebsiella pneumoniae; assay: Antimicrobial activity against multidrug resistant Klebsiella pneumoniae isolate 5 by broth dilution method in presence of 26.3 mg/L efflux pump inhibitor phenylalanine-arginine-beta-naphthylamide
[16] = test system: Klebsiella pneumoniae; assay: Antimicrobial activity against multidrug resistant Klebsiella pneumoniae isolate 6 by broth dilution method in presence of 26.3 mg/L efflux pump inhibitor phenylalanine-arginine-beta-naphthylamide
[17] = test system: Klebsiella pneumoniae; assay: Antimicrobial activity against multidrug resistant Klebsiella pneumoniae isolate 13 by broth dilution method in presence of 26.3 mg/L efflux pump inhibitor phenylalanine-arginine-beta-naphthylamide
[18] = test system: Klebsiella pneumoniae; assay: Antimicrobial activity against multidrug resistant Klebsiella pneumoniae isolate 8 by broth dilution method in presence of 26.3 mg/L efflux pump inhibitor phenylalanine-arginine-beta-naphthylamide
[19] = test system: Klebsiella aerogenes; assay: Antimicrobial activity against multidrug resistant Enterobacter aerogenes isolate 9 by broth dilution method
[20] = test system: Klebsiella aerogenes; assay: Antimicrobial activity against multidrug resistant Enterobacter aerogenes isolate 6 by broth dilution method in presence of 26.3 mg/L efflux pump inhibitor phenylalanine-arginine-beta-naphthylamide
[21] = test system: Klebsiella pneumoniae; assay: Antimicrobial activity against multidrug resistant Klebsiella pneumoniae isolate 13 by broth dilution method
[22] = test system: Klebsiella aerogenes; assay: Antimicrobial activity against multidrug resistant Enterobacter aerogenes isolate 25 by broth dilution method
[23] = test system: Klebsiella aerogenes; assay: Antimicrobial activity against multidrug resistant Enterobacter aerogenes isolate 20 by broth dilution method in presence of 26.3 mg/L efflux pump inhibitor phenylalanine-arginine-beta-naphthylamide
[24] = test system: Klebsiella aerogenes; assay: Antimicrobial activity against multidrug resistant Enterobacter aerogenes isolate 18 by broth dilution method
[25] = test system: Klebsiella aerogenes; assay: Antimicrobial activity against multidrug resistant Enterobacter aerogenes isolate 10 by broth dilution method in presence of 26.3 mg/L efflux pump inhibitor phenylalanine-arginine-beta-naphthylamide
[26] = test system: Klebsiella aerogenes; assay: Antimicrobial activity against multidrug resistant Enterobacter aerogenes isolate 21 by broth dilution method
[27] = test system: Klebsiella aerogenes; assay: Antimicrobial activity against multidrug resistant Enterobacter aerogenes isolate 12 by broth dilution method
[28] = test system: Klebsiella pneumoniae; assay: Antimicrobial activity against multidrug resistant Klebsiella pneumoniae isolate 9 by broth dilution method
[29] = test system: Klebsiella aerogenes; assay: Antimicrobial activity against multidrug resistant Enterobacter aerogenes isolate 8 by broth dilution method
[30] = test system: Klebsiella aerogenes; assay: Antimicrobial activity against multidrug resistant Enterobacter aerogenes isolate 3 by broth dilution method
[31] = test system: Klebsiella aerogenes; assay: Antimicrobial activity against multidrug resistant Enterobacter aerogenes isolate 19 by broth dilution method
[32] = test system: Klebsiella aerogenes; assay: Antimicrobial activity against multidrug resistant Enterobacter aerogenes isolate 1 by broth dilution method
[33] = test system: Klebsiella aerogenes; assay: Antimicrobial activity against multidrug resistant Enterobacter aerogenes isolate 17 by broth dilution method
[34] = test system: Klebsiella pneumoniae; assay: Antimicrobial activity against multidrug resistant Klebsiella pneumoniae isolate 4 by broth dilution method in presence of 26.3 mg/L efflux pump inhibitor phenylalanine-arginine-beta-naphthylamide
[35] = test system: Klebsiella aerogenes; assay: Antimicrobial activity against multidrug resistant Enterobacter aerogenes isolate 4 by broth dilution method
[36] = test system: Klebsiella pneumoniae; assay: Antimicrobial activity against multidrug resistant Klebsiella pneumoniae isolate 10 by broth dilution method
[37] = test system: Klebsiella aerogenes; assay: Antimicrobial activity against multidrug resistant Enterobacter aerogenes isolate 13 by broth dilution method in presence of 26.3 mg/L efflux pump inhibitor phenylalanine-arginine-beta-naphthylamide
[38] = test system: Klebsiella aerogenes; assay: Antimicrobial activity against multidrug resistant Enterobacter aerogenes isolate 19 by broth dilution method in presence of 26.3 mg/L efflux pump inhibitor phenylalanine-arginine-beta-naphthylamide
[39] = test system: Klebsiella pneumoniae; assay: Antimicrobial activity against multidrug resistant Klebsiella pneumoniae isolate 1 by broth dilution method in presence of 26.3 mg/L efflux pump inhibitor phenylalanine-arginine-beta-naphthylamide
[40] = test system: Klebsiella aerogenes; assay: Antimicrobial activity against multidrug resistant Enterobacter aerogenes isolate 9 by broth dilution method in presence of 26.3 mg/L efflux pump inhibitor phenylalanine-arginine-beta-naphthylamide
[41] = test system: Klebsiella pneumoniae; assay: Antimicrobial activity against multidrug resistant Klebsiella pneumoniae isolate 7 by broth dilution method in presence of 26.3 mg/L efflux pump inhibitor phenylalanine-arginine-beta-naphthylamide

O=C(N[C@H](CO)[C@H](O)c1ccc([N+](=O)[O-])cc1)C(Cl)Cl [CHLORAMPHENICOL]
MIC [1]: > 1020 µg/mL | MIC [2]: 512 µg/mL (≈ 1580 µM) | MIC [3]: 64 µg/mL | MIC [4]: 32 µg/mL (≈ 99 µM) | MIC [5]: 1020 µg/mL (≈ 3170 µM) | MIC [6]: 32 µg/mL (≈ 99 µM) | MIC [7]: 128 µg/mL | MIC [8]: 1020 µg/mL (≈ 3170 µM) | MIC [9]: 8 µg/mL (≈ 24.8 µM) | MIC [10]: 1020 µg/mL (≈ 3170 µM) | MIC [11]: 128 µg/mL | MIC [12]: 64 µg/mL | MIC [13]: 64 µg/mL | MIC [14]: 2 µg/mL | MIC [15]: 2 µg/mL | MIC [16]: 2 µg/mL | MIC [17]: 4 µg/mL | MIC [18]: 2 µg/mL | MIC [19]: 256 µg/mL (≈ 792 µM) | MIC [20]: 4 µg/mL | MIC [21]: 128 µg/mL (≈ 396 µM) | MIC [22]: 512 µg/mL (≈ 1580 µM) | MIC [23]: 64 µg/mL | MIC [24]: 32 µg/mL (≈ 99 µM) | MIC [25]: 128 µg/mL | MIC [26]: 1020 µg/mL (≈ 3170 µM) | MIC [27]: 1020 µg/mL (≈ 3170 µM) | MIC [28]: 64 µg/mL (≈ 198 µM) | MIC [29]: 256 µg/mL (≈ 792 µM) | MIC [30]: 1020 µg/mL (≈ 3170 µM) | MIC [31]: 1020 µg/mL (≈ 3170 µM) | MIC [32]: 1020 µg/mL (≈ 3170 µM) | MIC [33]: 1020 µg/mL (≈ 3170 µM) | MIC [34]: 2 µg/mL | MIC [35]: 1020 µg/mL (≈ 3170 µM) | MIC [36]: 4 µg/mL (≈ 12.4 µM) | MIC [37]: 64 µg/mL | MIC [38]: 64 µg/mL | MIC [39]: 8 µg/mL | MIC [40]: 64 µg/mL | MIC [41]: 2 µg/mL

CCn1cc(C(=O)O)c(=O)c2cc(F)c(N3CCNCC3)cc21 [NORFLOXACIN]
MIC [1]: 512 µg/mL (≈ 1600 µM) | MIC [2]: 512 µg/mL (≈ 1600 µM) | MIC [3]: 128 µg/mL | MIC [4]: 0.25 µg/mL (≈ 0.783 µM) | MIC [5]: 256 µg/mL (≈ 802 µM) | MIC [6]: 2 µg/mL (≈ 6.26 µM) | MIC [7]: 512 µg/mL | MIC [8]: 256 µg/mL (≈ 802 µM) | MIC [9]: 2 µg/mL (≈ 6.26 µM) | MIC [10]: 512 µg/mL (≈ 1600 µM) | MIC [11]: 128 µg/mL | MIC [12]: 2 µg/mL | MIC [13]: 128 µg/mL | MIC [14]: 0.125 µg/mL | MIC [15]: 0.5 µg/mL | MIC [16]: 0.25 µg/mL | MIC [17]: 32 µg/mL | MIC [18]: 0.25 µg/mL | MIC [19]: 128 µg/mL (≈ 401 µM) | MIC [20]: 2 µg/mL | MIC [21]: > 256 µg/mL | MIC [22]: 256 µg/mL (≈ 802 µM) | MIC [23]: 128 µg/mL | MIC [24]: 128 µg/mL (≈ 401 µM) | MIC [25]: 256 µg/mL | MIC [26]: 512 µg/mL (≈ 1600 µM) | MIC [27]: 512 µg/mL (≈ 1600 µM) | MIC [28]: 1 µg/mL (≈ 3.13 µM) | MIC [29]: 128 µg/mL (≈ 401 µM) | MIC [30]: 256 µg/mL (≈ 802 µM) | MIC [31]: 128 µg/mL (≈ 401 µM) | MIC [32]: 256 µg/mL (≈ 802 µM) | MIC [33]: > 512 µg/mL | MIC [34]: 128 µg/mL | MIC [35]: 512 µg/mL (≈ 1600 µM) | MIC [36]: 128 µg/mL (≈ 401 µM) | MIC [37]: 512 µg/mL | MIC [38]: 128 µg/mL | MIC [39]: 2 µg/mL | MIC [40]: 128 µg/mL | MIC [41]: 0.25 µg/mL
